Reference: US7803816B2, “MCH receptor antagonists” (Hoffmann-La Roche Inc., priority 2005, dated 2010)

molecular target: T1, recombinant human MCHR1-receptors (Homo sapiens, UniProt Q99705); assay: MCHR filter binding assay (competition binding); conditions: membranes from CHO-K1 cells expressing human MCHR1; 0.2 nM [Phe13,[125I]Tyr19]-MCH; read-out: IC50 (nM), in vitro activity (binding assay)
T1 construct: expressed in transfected cells
Method: MCHR Filter Binding Assay
Competition binding assays were performed using membranes from CHO-K1 cells stably expressing the recombinant human MCHR1-receptors. Binding reactions (90 μl, final volume) were carried out at rt by incubating 2.8 μg membranes with 0.2 nM [Phe^13,[^125I]Tyr^19]-MCH (PerkinElmer) in the absence or presence of various concentrations of competing ligands in binding buffer (50 mM HEPES, 2.5 mM CaCl2, 0.05 mM BSA, 1 mM phenanthroline, 0.03 mM Triton X-100). [Phe^13,[^125I]Tyr^19]-MCH was added 15 min following the addition of unlabeled competing ligands, and the reactions incubated for a 1 h period. The reactions were terminated by rapid filtration over pretreated 96-well filter plates (Millipore; MultiScreen 0.65 μm GFB filter plates). Filter Plates were treated for 12 h at 4° C. with a 0.5% polyvinylpyrrolidone solution containing 1% BSA and 0.1% Tween 20, and then washed with an ice-cold solution of 10 mM Tris, pH 7.5 (5×200 μl). The plates were drained following a 5 min incubation with binding buffer (200 μl) at rt. Following termination of the binding reactions, the filters were washed with ice-cold binding buffer (4×200 μl). The filter plates were air dried for 30 min, scintillation cocktail (60 μl) added to each well and radioactivity bound to the plates was determined using a Micro-beta plate reader (Wallace/PerkinElmer).

T1 sequence (Q99705 whole entry): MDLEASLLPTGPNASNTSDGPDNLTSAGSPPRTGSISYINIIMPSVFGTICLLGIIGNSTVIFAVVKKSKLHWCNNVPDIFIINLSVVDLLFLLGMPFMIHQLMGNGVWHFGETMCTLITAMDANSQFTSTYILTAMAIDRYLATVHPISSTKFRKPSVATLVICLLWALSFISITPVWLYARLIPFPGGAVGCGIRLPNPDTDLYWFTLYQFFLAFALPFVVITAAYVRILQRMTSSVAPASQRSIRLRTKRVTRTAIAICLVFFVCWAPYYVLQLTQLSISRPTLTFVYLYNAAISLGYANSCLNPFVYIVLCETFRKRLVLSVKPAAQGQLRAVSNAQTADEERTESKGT

**Q.** `Cc1ccc2c(c1)nc(C)n2C1CCN(CC2=Cc3cc(NC(=O)C(C)C)ccc3C2)CC1` [Example 54, N-{2-[4-(2,5-Dimethyl-benzoimidazol-1-yl)-piperidin-1-ylmethyl]-1H-inden-5-yl}-isobutyramide] was tested. Which IC50 did it give?
**A.** Its IC50 is 200 to 5000 nM.

**Q.** Which IC50 does the source give for `CCC(=O)Nc1ccc2c(c1)C[C@H](CN1CCC(n3c(C(C)C)nc4cc(C)ccc43)C(OC)C1)C2` (stereo partly drawn) [Example 59, N-{(R)-2-[4-(2-Isopropyl-5-methyl-benzoimidazol-1-yl)-3-methoxy-piperidin-1-ylmethyl]-indan-5-yl}-propionamide] here?
**A.** The IC50 was less than 20 nM.

**Q.** Which IC50 does the source give for `CCC(=O)Nc1ccc2c(c1)C[C@H](CN1CC[C@H](n3c(C4CC4)nc4cc(C)ccc43)[C@@H](OC)C1)C2` [Example 60, N-{(R)-2-[(3S,4S)-4-(2-Cyclopropyl-5-methyl-benzoimidazol-1-yl)-3-methoxy-piperidin-1-ylmethyl]-indan-5-yl}-propionamide] here?
**A.** The IC50 was less than 20 nM.

**Q.** For `CCc1nc2cc(C)ccc2n1C1CCN(C[C@@H]2Cc3ccc(NC(=O)C(C)C)cc3C2)CC1OC` (stereo partly drawn) [Example 61, N-{(R)-2-[4-(2-Ethyl-5-methyl-benzoimidazol-1-yl)-3-methoxy-piperidin-1-ylmethyl]-indan-5-yl}-isobutyramide], which IC50 is on record?
**A.** Its IC50 is less than 20 nM.

**Q.** For `CCCC(=O)Nc1ccc2c(c1)C[C@H](CN1CC[C@H](n3c(C4CC4)nc4cc(C)ccc43)[C@@H](OC)C1)C2` [Example 62, N-{(R)-2-[(3S,4S)-4-(2-Cyclopropyl-5-methyl-benzoimidazol-1-yl)-3-methoxy-piperidin-1-ylmethyl]-indan-5-yl}-butyramide], which IC50 is on record?
**A.** Its IC50 is less than 20 nM.

**Q.** How did the IC50 turn out when `CO[C@H]1CN(C[C@@H]2Cc3ccc(NC(=O)C(F)F)cc3C2)CC[C@@H]1n1c(C2CC2)nc2cc(C)ccc21` [Example 63, N-{(R)-2-[(3S,4S)-4-(2-Cyclopropyl-5-methyl-benzoimidazol-1-yl)-3-methoxy-piperidin-1-ylmethyl]-indan-5-yl}-2,2-difluoro-acetamide] was run?
**A.** Its IC50 is less than 20 nM.

**Q.** `COC1CN(C[C@@H]2Cc3ccc(NC(=O)C4CC4)cc3C2)CCC1n1c(C(C)C)nc2cc(C)ccc21` (stereo partly drawn) [Example 64, Cyclopropanecarboxylic acid {(R)-2-[4-(2-isopropyl-5-methyl-benzoimidazol-1-yl)-3-methoxy-piperidin-1-ylmethyl]-indan-5-yl}-amide] was tested. Which IC50 did it give?
**A.** The IC50 was less than 20 nM.

**Q.** Which IC50 does the source give for `CO[C@H]1CN(C[C@@H]2Cc3ccc(NC(=O)C(C)C)cc3C2)CC[C@@H]1n1c(C2CC2)nc2cc(C)ccc21` [Example 65, N-{(R)-2-[(3S,4S)-4-(2-Cyclopropyl-5-methyl-benzoimidazol-1-yl)-3-methoxy-piperidin-1-ylmethyl]-indan-5-yl}-isobutyramide] here?
**A.** Its IC50 is less than 20 nM.

**Q.** With `CO[C@H]1CN(C[C@@H]2Cc3ccc(NC(=O)C(F)F)cc3C2)CC[C@@H]1n1c(C(C)C)nc2cc(C)ccc21` [Example 67, 2,2-Difluoro-N-{(R)-2-[(3S,4S)-4-(2-isopropyl-5-methyl-benzoimidazol-1-yl)-3-methoxy-piperidin-1-ylmethyl]-indan-5-yl}-acetamide] as the compound, how does the IC50 read?
**A.** Its IC50 is less than 20 nM.

**Q.** `COC1CN(C[C@@H]2Cc3ccc(NC(=O)C(C)C)cc3C2)CCC1n1c(C(C)C)nc2cc(C)ccc21` (stereo partly drawn) [Example 68, N-{(R)-2-[4-(2-Isopropyl-5-methyl-benzoimidazol-1-yl)-3-methoxy-piperidin-1-ylmethyl]-indan-5-yl}-isobutyramide] was tested. Which IC50 did it give?
**A.** The IC50 was less than 20 nM.

**Q.** Which IC50 does the source give for `CCC(=O)Nc1ccc2c(c1)C[C@H](CN1CCC(n3c(CC)nc4cc(C)ccc43)C(OC)C1)C2` (stereo partly drawn) [Example 69, N-{(R)-2-[4-(2-Ethyl-5-methyl-benzoimidazol-1-yl)-3-methoxy-piperidin-1-ylmethyl]-indan-5-yl}-propionamide] here?
**A.** The IC50 was less than 20 nM.

**Q.** For `CCc1nc2cc(C)ccc2n1C1CCN(CC2Cc3ccc(NC(=O)C(C)C)cc3C2)CC1` (stereo not shown) [Example 70, N-{2-[4-(2-Ethyl-5-methyl-benzoimidazol-1-yl)-piperidin-1-ylmethyl]-indan-5-yl}-isobutyramide], which IC50 is on record?
**A.** Its IC50 is less than 20 nM.

**Q.** Which IC50 does the source give for `COC(=O)Nc1ccc2c(c1)C[C@H](CN1CC[C@H](n3c(C4CC4)nc4cc(C)ccc43)[C@@H](OC)C1)C2` [Example 71, {(R)-2-[(3S,4S)-4-(2-Cyclopropyl-5-methyl-benzoimidazol-1-yl)-3-methoxy-piperidin-1-ylmethyl]-indan-5-yl}-carbamic acid methyl ester] here?
**A.** Its IC50 is less than 20 nM.

**Q.** How did the IC50 turn out when `CCc1nc2cc(C)ccc2n1C1CCN(C[C@@H]2Cc3ccc(NC(=O)C4CC4)cc3C2)CC1OC` (stereo partly drawn) [Example 72, Cyclopropanecarboxylic acid {(R)-2-[4-(2-ethyl-5-methyl-benzoimidazol-1-yl)-3-methoxy-piperidin-1-ylmethyl]-indan-5-yl}-amide] was run?
**A.** Its IC50 is 20 to 200 nM.

**Q.** With `CO[C@@H]1CN(C[C@@H]2Cc3ccc(NC(=O)C(C)C)cc3C2)CC[C@H]1n1c(C2CC2)nc2cc(C)ccc21` [Example 73, N-{(R)-2-[(3R,4R)-4-(2-Cyclopropyl-5-methyl-benzoimidazol-1-yl)-3-methoxy-piperidin-1-ylmethyl]-indan-5-yl}-isobutyramide] as the compound, how does the IC50 read?
**A.** Its IC50 is 20 to 200 nM.

**Q.** `CCc1nc2cc(C)ccc2n1C1CCN(CC2Cc3ccc(NC(=O)C4CC4)cc3C2)CC1` (stereo not shown) [Example 74, Cyclopropanecarboxylic acid {2-[4-(2-ethyl-5-methyl-benzoimidazol-1-yl)-piperidin-1-ylmethyl]-indan-5-yl}-amide] was tested. Which IC50 did it give?
**A.** Its IC50 is 20 to 200 nM.

**Q.** For `COC(=O)Nc1ccc2c(c1)C[C@H](CN1CC[C@@H](n3c(C4CC4)nc4cc(C)ccc43)[C@H](OC)C1)C2` [Example 75, {(R)-2-[(3R,4R)-4-(2-Cyclopropyl-5-methyl-benzoimidazol-1-yl)-3-methoxy-piperidin-1-ylmethyl]-indan-5-yl}-carbamic acid methyl ester], which IC50 is on record?
**A.** The IC50 was 20 to 200 nM.

**Q.** Which IC50 does the source give for `CCC(=O)Nc1ccc2c(c1)C[C@H](CN1CC[C@@H](n3c(C4CC4)nc4cc(C)ccc43)[C@H](OC)C1)C2` [Example 76, N-{(R)-2-[(3R,4R)-4-(2-Cyclopropyl-5-methyl-benzoimidazol-1-yl)-3-methoxy-piperidin-1-ylmethyl]-indan-5-yl}-propionamide] here?
**A.** Its IC50 is 20 to 200 nM.

**Q.** Which IC50 does the source give for `COC(=O)Nc1ccc2c(c1)C[C@H](CN1CC[C@@H](n3c(C(C)C)nc4cc(C)ccc43)[C@H](OC)C1)C2` [Example 77, {(R)-2-[(3R,4R)-4-(2-Isopropyl-5-methyl-benzoimidazol-1-yl)-3-methoxy-piperidin-1-ylmethyl]-indan-5-yl}-carbamic acid methyl ester] here?
**A.** Its IC50 is 20 to 200 nM.

**Q.** `Cc1ccc2c(c1)ncn2C1CCN(CC2Cc3ccc(NC(=O)C(C)C)cc3C2)CC1` (stereo not shown) [Example 78, N-{2-[4-(5-Methyl-benzoimidazol-1-yl)-piperidin-1-ylmethyl]-indan-5-yl}-isobutyramide] was tested. Which IC50 did it give?
**A.** The IC50 was 20 to 200 nM.

**Q.** How did the IC50 turn out when `CCCC(=O)Nc1ccc2c(c1)C[C@H](CN1CC[C@@H](n3c(C4CC4)nc4cc(C)ccc43)[C@H](OC)C1)C2` [Example 79, N-{(R)-2-[(3R,4R)-4-(2-Cyclopropyl-5-methyl-benzoimidazol-1-yl)-3-methoxy-piperidin-1-ylmethyl]-indan-5-yl}-butyramide] was run?
**A.** The IC50 was 20 to 200 nM.

**Q.** With `CO[C@@H]1CN(C[C@@H]2Cc3ccc(NC(=O)C4CC4)cc3C2)CC[C@H]1n1c(C2CC2)nc2cc(C)ccc21` [Example 80, Cyclopropanecarboxylic acid {(R)-2-[(3R,4R)-4-(2-cyclopropyl-5-methyl-benzoimidazol-1-yl)-3-methoxy-piperidin-1-ylmethyl]-indan-5-yl}-amide] as the compound, how does the IC50 read?
**A.** Its IC50 is 200 to 5000 nM.

**Q.** With `CO[C@H]1CN(CC2Cc3ccccc3C2)CC[C@@H]1n1c(C)nc2cc(C)ccc21` [Example 81, 1-((3S,4S)-1-Indan-2-ylmethyl-3-methoxy-piperidin-4-yl)-2,5-dimethyl-1H-benzoimidazole] as the compound, how does the IC50 read?
**A.** Its IC50 is 200 to 5000 nM.

**Q.** With `CC(=O)c1nc2cc(C)ccc2n1C1CCN(CC2Cc3ccccc3C2)CC1` [Example 82, 1-[1-(1-Indan-2-ylmethyl-piperidin-4-yl)-5-methyl-1H-benzoimidazol-2-yl]-ethanone] as the compound, how does the IC50 read?
**A.** Its IC50 is 200 to 5000 nM.

**Q.** Which IC50 does the source give for `Cc1ccc2c(c1)nc(C(C)C)n2[C@@H]1CCN(CC2Cc3ccccc3C2)C[C@H]1O` [Example 83, (3R,4R)-1-Indan-2-ylmethyl-4-(2-isopropyl-5-methyl-benzoimidazol-1-yl)-piperidin-3-ol] here?
**A.** The IC50 was 200 to 5000 nM.

**Q.** How did the IC50 turn out when `CCC(=O)Nc1ccc2c(c1)C[C@H](CN1CC[C@@H](n3c(C(C)C)nc4cc(C)ccc43)[C@H](O)C1)C2` [Example 84, N-{(R)-2-[(3R,4R)-3-Hydroxy-4-(2-isopropyl-5-methyl-benzoimidazol-1-yl)-piperidin-1-ylmethyl]-indan-5-yl}-propionamide] was run?
**A.** The IC50 was less than 20 nM.

**Q.** With `CO[C@@H]1CN(C[C@H]2Cc3ccc(C#N)cc3C2)CC[C@H]1n1c(C)nc2cc(C)ccc21` [Example 85, (S)-2-[(3R,4R)-4-(2,5-Dimethyl-benzoimidazol-1-yl)-3-methoxy-piperidin-1-ylmethyl]-indan-5-carbonitrile] as the compound, how does the IC50 read?
**A.** The IC50 was less than 20 nM.

**Q.** With `Cc1ccc2c(c1)nc(C(C)C)n2[C@@H]1CCN(C[C@@H]2Cc3ccc(NC(=O)C(C)C)cc3C2)C[C@H]1O` [Example 86, N-{(R)-2-[(3R,4R)-3-Hydroxy-4-(2-isopropyl-5-methyl-benzoimidazol-1-yl)-piperidin-1-ylmethyl]-indan-5-yl}-isobutyramide] as the compound, how does the IC50 read?
**A.** The IC50 was 20 to 200 nM.
